One test deals with EV-D68. Particulars: respiratory and neurological disease mouse models; cited from earlier work.
The next test concerns EV-D68 US/MO/14-18947. Description: CPE assay with EV-D68 US/MO/14-18947 in R.D. cells. Format: cell-based, Enterovirus D68. Particulars: for EC50: Enterovirus D, EVD68, RD, read-out: Antiviral EC50.
Test [1] concerns the target T1, EV-D68 2A^pro (Enterovirus D68, UniProt A0A097BW19). Description: FRET-based enzymatic assay. Format: biochemical.
In test [2] the target is T1, EV-D68 2A^pro. Description: Enzyme kinetic studies. Format: biochemical. Particulars: from fitting of kinetic curves.

The structures appear in SMILES notation.

For the compound `Cc1cc(CCCOc2c(C)cc(-c3noc(C(F)(F)F)n3)cc2C)on1` [pleconaril], the “therapeutic efficacy in EV-D68 mouse models” value (from here on “therapeutic efficacy”) in the test with EV-D68 is recorded as “none of these antivirals showed therapeutic efficacy”.

In the case of `COC[C@H](NC(=O)[C@@H]1[C@H]2CCC[C@H]2CN1C(=O)[C@@H](NC(=O)CC12CC3CC(CC(C3)C1)C2)C(C)(C)C)C(=O)C(=O)NC1CC1` [Jun11672, (1S,3aR,6aS)-2-((S)-2-(2-((3S,5S,7S)-adamantan-1-yl)acetamido)-3,3-dimethylbutanoyl)-N-((S)-4-(cyclopropylamino)-1-methoxy-3,4-dioxobutan-2-yl)octahydrocyclopenta[c]pyrrole-1-carboxamide], in the test with EV-D68 US/MO/14-18947 (CPE assay EV-D68 US/MO/14-18947), the “antiviral activity, comparison in words” value is given as “not active as Jun8861”.

`CC(C)[C@H](NC(=O)[C@@H]1[C@H]2CCC[C@H]2CN1C(=O)[C@@H](NC(=O)CC12CC3CC(CC(C3)C1)C2)C(C)(C)C)C(=O)C(=O)NC1CC1` [Jun11718, (1S,3aR,6aS)-2-((S)-2-(2-((3S,5S,7S)-adamantan-1-yl)acetamido)-3,3-dimethylbutanoyl)-N-((S)-1-(cyclopropylamino)-4-methyl-1,2-dioxopentan-3-yl)octahydrocyclopenta[c]pyrrole-1-carboxamide]: the “enzymatic inhibition, comparison in words” value (shortened to “enzymatic inhibition”) at EV-D68 2A^pro [1] is “comparable enzymatic inhibition and antiviral activity as Jun8861”.

With `CC(C)(C)[C@H](NC(=O)CC12CC3CC(CC(C3)C1)C2)C(=O)N1C[C@@H]2CCC[C@@H]2[C@H]1C(=O)N[C@H](C(=O)C(=O)NC1CC1)c1ccccc1` [Jun11817, (1S,3aR,6aS)-2-((S)-2-(2-((3S,5S,7S)-adamantan-1-yl)acetamido)-3,3-dimethylbutanoyl)-N-((S)-3-(cyclopropylamino)-2,3-dioxo-1-phenylpropyl)octahydrocyclopenta[c]pyrrole-1-carboxamide], at EV-D68 2A^pro [1], the “enzymatic inhibition” value is “less active”.

With `CC(C)S(=O)(=O)n1c(N)nc2ccc(/C(=N/O)c3ccccc3)cc21` [enviroxime], the “therapeutic efficacy” value in the test with EV-D68 is recorded as “none of these antivirals showed therapeutic efficacy”.

Take `CCC[C@H](NC(=O)[C@@H]1[C@H]2CCC[C@H]2CN1C(=O)[C@@H](NC(=O)CC1CCC(F)(F)CC1)C(C)(C)C)C(=O)C(=O)NC1CC1` [Jun975, (1S,3aR,6aS)-N-((S)-1-(cyclopropylamino)-1,2-dioxohexan-3-yl)-2-((S)-2-(2-(4,4-difluorocyclohexyl)acetamido)-3,3-dimethylbutanoyl)octahydrocyclopenta[c]pyrrole-1-carboxamide]: the EC50 in the test with EV-D68 US/MO/14-18947 fell in the range of 160 to 750 nM.

For `CC(C)(C)[C@H](NC(=O)CC12CC3CC(CC(C3)C1)C2)C(=O)N1C[C@@H]2CCC[C@@H]2[C@H]1C(=O)N[C@@H](Cc1c[nH]c2ccccc12)C(=O)C(=O)NC1CC1` [Jun11862, (1S,3aR,6aS)-2-((S)-2-(2-((3S,5S,7S)-adamantan-1-yl)acetamido)-3,3-dimethylbutanoyl)-N-((S)-4-(cyclopropylamino)-1-(1H-indol-3-yl)-3,4-dioxobutan-2-yl)octahydrocyclopenta[c]pyrrole-1-carboxamide], the “enzymatic inhibition” value at EV-D68 2A^pro [1] was “comparable enzymatic inhibition and antiviral activity as Jun11385”.

Regarding `CCOC(=O)c1ccc(OCCC2CCN(c3ccc(C)nn3)CC2)cc1` [pirodavir], the “therapeutic efficacy” value with EV-D68 is reported as “none of these antivirals showed therapeutic efficacy”.

Turning to `NC(=O)c1ncn([C@@H]2O[C@H](CO)[C@@H](O)[C@H]2O)n1` [ribavirin], in the test with EV-D68, the “therapeutic efficacy” value is on record as “none of these antivirals showed therapeutic efficacy”.

Regarding `CCC[C@H](NC(=O)[C@@H]1[C@H]2CCC[C@H]2CN1C(=O)[C@@H](NC(=O)Cc1ccccc1)C(C)(C)C)C(=O)C(=O)NC1CC1` [Jun8681, (1S,3aR,6aS)-N-((S)-1-(cyclopropylamino)-1,2-dioxohexan-3-yl)-2-((S)-3,3-dimethyl-2-(2-phenylacetamido)butanoyl)octahydrocyclopenta[c]pyrrole-1-carboxamide], on EV-D68 2A^pro [1], the “enzymatic inhibition” value was “reduced enzymatic inhibition and antiviral activity compared to telaprevir”.

As for `CCC[C@H](NC(=O)[C@@H]1[C@H]2CCC[C@H]2CN1C(=O)[C@@H](NC(=O)OCc1ccccc1)C(C)(C)C)C(=O)C(=O)NC1CC1` [Jun7426, Benzyl ((S)-1-((1S,3aR,6aS)-1-(((S)-1-(cyclopropylamino)-1,2-dioxohexan-3-yl)carbamoyl)hexahydrocyclopenta[c]pyrrol-2(1H)-yl)-3,3-dimethyl-1-oxobutan-2-yl)carbamate], at EV-D68 2A^pro [1], the “enzymatic inhibition” value is “reduced enzymatic inhibition and antiviral activity compared to telaprevir”.

Turning to `CC(C)(C)[C@H](NC(=O)CC12CC3CC(CC(C3)C1)C2)C(=O)N1C[C@@H]2CCC[C@@H]2[C@H]1C(=O)N[C@H](C=O)Cc1ccc(F)cc1` [Jun11707, (1S,3aR,6aS)-2-((S)-2-(2-((3S,5S,7S)-adamantan-1-yl)acetamido)-3,3-dimethylbutanoyl)-N-((S)-1-(4-fluorophenyl)-3-oxopropan-2-yl)octahydrocyclopenta[c]pyrrole-1-carboxamide], the “Mode of inhibition of EV-D68 2A^pro” value at EV-D68 2A^pro [2] is recorded as “reversible binding”.

Consider `CCOC(=O)/C=C/[C@H](C[C@@H]1CCNC1=O)NC(=O)[C@@H](CC(=O)[C@@H](NC(=O)c1cc(C)on1)C(C)C)Cc1ccc(F)cc1` [rupintrivir], for which the “therapeutic efficacy” value in the test with EV-D68 was “none of these antivirals showed therapeutic efficacy”.

For `CCC[C@H](NC(=O)[C@@H]1[C@H]2CCC[C@H]2CN1C(=O)[C@@H](NC(=O)NC12CC3CC(CC(C3)C1)C2)C(C)(C)C)C(=O)C(=O)NC1CC1` [Jun1023, (1S)-2-((S)-2-(3-((3R,5R,7R)-adamantan-1-yl)ureido)-3,3-dimethylbutanoyl)-N-((S)-1-(cyclopropylamino)-1,2-dioxohexan-3-yl)octahydrocyclopenta[c]pyrrole-1-carboxamide], the “enzymatic inhibition” value on EV-D68 2A^pro [1] is “reduced enzymatic inhibition”.

As to `CCC[C@H](NC(=O)[C@@H]1[C@H]2CCC[C@H]2CN1C(=O)[C@@H](NC(=O)/C=C/c1ccccc1)C(C)(C)C)C(=O)C(=O)NC1CC1` [Jun8813, (1S,3aR,6aS)-2-((S)-2-cinnamamido-3,3-dimethylbutanoyl)-N-((S)-1-(cyclopropylamino)-1,2-dioxohexan-3-yl)octahydrocyclopenta[c]pyrrole-1-carboxamide], the “enzymatic inhibition” value at EV-D68 2A^pro [1] was “reduced enzymatic inhibition and antiviral activity compared to telaprevir”.

With `CC(C)(C)[C@H](NC(=O)CC12CC3CC(CC(C3)C1)C2)C(=O)N1C[C@@H]2CCC[C@@H]2[C@H]1C(=O)NC1(C(=O)C(=O)NC2CC2)CCCCC1` [Jun11805, (1S,3aR,6aS)-2-((S)-2-(2-((3S,5S,7S)-adamantan-1-yl)acetamido)-3,3-dimethylbutanoyl)-N-(1-(2-(cyclopropylamino)-2-oxoacetyl)cyclohexyl)octahydrocyclopenta[c]pyrrole-1-carboxamide], at EV-D68 2A^pro [1], the “enzymatic inhibition” value is reported as “less active compared to Jun11762”.

For the compound `CC(C)(C)[C@H](NC(=O)CC12CC3CC(CC(C3)C1)C2)C(=O)N1C[C@@H]2CCC[C@@H]2[C@H]1C(=O)NC1(C(=O)C(=O)NC2CC2)CCC1` [Jun11806, (1S,3aR,6aS)-2-((S)-2-(2-((3S,5S,7S)-adamantan-1-yl)acetamido)-3,3-dimethylbutanoyl)-N-(1-(2-(cyclopropylamino)-2 oxoacetyl)cyclobutyl)octahydrocyclopenta[c]pyrrole-1-carboxamide], on EV-D68 2A^pro [1], the “enzymatic inhibition” value is recorded as “less active compared to Jun11762”.

`CC(C)(C)[C@H](NC(=O)CC12CC3CC(CC(C3)C1)C2)C(=O)N1C[C@@H]2CCC[C@@H]2[C@H]1C(=O)N[C@@H](Cc1ccc(F)cc1)C(=O)C(=O)NC1CC1` [Jun11763, (1S,3aR,6aS)-2-((S)-2-(2-((3S,5S,7S)-adamantan-1-yl)acetamido)-3,3-dimethylbutanoyl)-N-((S)-4-(cyclopropylamino)-1-(4-fluorophenyl)-3,4-dioxobutan-2-yl)octahydrocyclo-penta[c]pyrrole-1-carboxamide]: the “enzymatic inhibition” value on EV-D68 2A^pro [1] was “comparable enzymatic inhibition and antiviral activity as Jun11385”.

In the case of `CC(C)(C)[C@H](NC(=O)CC12CC3CC(CC(C3)C1)C2)C(=O)N1C[C@@H]2CCC[C@@H]2[C@H]1C(=O)N[C@H](C(=O)C(=O)NC1CC1)C1CCCC1` [Jun11808, (1S,3aR,6aS)-2-((S)-2-(2-((3S,5S,7S)-adamantan-1-yl)acetamido)-3,3-dimethylbutanoyl)-N-((S)-1-cyclopentyl-3-(cyclopropylamino)-2,3-dioxopropyl)octahydrocyclopenta[c]pyrrole-1-carboxamide], the “Mode of inhibition of EV-D68 2A^pro” value on EV-D68 2A^pro [2] was “reversible binding”. Besides, the “enzymatic inhibition” value on EV-D68 2A^pro [1] was “comparable enzymatic inhibition and antiviral activity as Jun8861”.

As for `CCC[C@H](NC(=O)[C@@H]1[C@H]2CCC[C@H]2CN1C(=O)[C@@H](NC(=O)CC1CCCCC1)C(C)(C)C)C(=O)C(=O)NC1CC1` [Jun8814, (1S,3aR,6aS)-2-((S)-2-(2-cyclohexylacetamido)-3,3-dimethylbutanoyl)-N-((S)-1-(cyclopropylamino)-1,2-dioxohexan-3-yl)octahydrocyclopenta[c]pyrrole-1-carboxamide], the EC50 in the test on EV-D68 US/MO/14-18947 was in the range of 160 to 750 nM.

Regarding `CC(C)(C)[C@H](NC(=O)CC12CC3CC(CC(C3)C1)C2)C(=O)N1C[C@@H]2CCC[C@@H]2[C@H]1C(=O)N[C@H](C(=O)C(=O)NC1CC1)c1ccc(F)cc1` [Jun11861, (1S,3aR,6aS)-2-((S)-2-(2-((3S,5S,7S)-adamantan-1-yl)acetamido)-3,3-dimethylbutanoyl)-N-((S)-3-(cyclopropylamino)-1-(4-fluorophenyl)-2,3-dioxopropyl)octahydrocyclopenta[c]pyrrole-1-carboxamide], the “enzymatic inhibition” value on EV-D68 2A^pro [1] was “less active”.

Regarding `CCC[C@H](NC(=O)[C@@H]1[C@H]2CCC[C@H]2CN1C(=O)[C@@H](NC(=O)CC1CCCC1)C(C)(C)C)C(=O)C(=O)NC1CC1` [Jun971, (1S,3aR,6aS)-2-((S)-2-(2-cyclopentylacetamido)-3,3-dimethylbutanoyl)-N-((S)-1-(cyclopropylamino)-1,2-dioxohexan-3-yl)octahydrocyclopenta[c]pyrrole-1-carboxamide], the EC50 in the test on EV-D68 US/MO/14-18947 lay in the range of 160 to 750 nM.
